Data from article PMC7862507, “Adrenomedullin for steroid-resistant ulcerative colitis: a randomized, double-blind, placebo-controlled phase-2a clinical trial” (Journal of Gastroenterology, 2020).

Key:
[1] = test system: patients with steroid-resistant UC; assay: Mayo endoscopy subscore (MES), phase-2a clinical trial; assay type: in vivo, Japanese patients; conditions: mean ± SD
Excerpt: (§1) Patients had to meet all criteria, namely, a Mayo score of 6 or more, a rectal bleeding subscore of at least 1, and Mayo endoscopy subscore (MES) of at least 2, at entry. Main exclusion criteria were as follows: patients with fulminant UC, patients with precancerous lesion in the colon, medication history of biologics within the last 3 months, patients with malignancy or any history of malignancy, and patients with active infection. We excluded patients with a systolic blood pressure under 90 mmHg and a pulse rate under 45 bpm for safety reasons due to the vasodilatory effect of AM. All patients provided written informed consent for all study-related procedures and were requested to be hospitalized for 2 weeks.
(§2) Patients were enrolled after confirmation of steroid-resistance defined as at least daily treatment with 30 mg or more of prednisolone. Screening tests including measurements of vital signs, blood and urine examinations, as well as a 12-lead electrocardiography (ECG), were conducted within 2 weeks prior to administration. Demographic data and disease characteristics including endoscopic disease activity of patients were also collected before randomization. Endoscopic subscores were assessed by on-site investigators and were not subjected to central review. Clinical disease activity was assessed by expert doctors according to the Mayo score and Lichtiger index. Stool samples were collected before administration of the investigational drug and after 2 weeks of treatment initiation. Measurements of fecal calprotectin and […] (FITs) were performed by a commercially available laboratory testing service (BML, Tokyo, Japan) in compliance with GCP. Additionally, measurements of complement components including CH50, C1q, C3, and C4 and evaluation of the absolute number of hematopoietic stem cells in the peripheral blood were performed before and after 2, 4, and 8 weeks by other laboratory testing services (SRL medisearch, Tokyo, Japan and LSI medience, Tokyo, Japan, respectively). The absolute number of hematopoietic stem cells in the peripheral blood was measured as CD34-positive cells using CD45FITC/CD34PE, 7AAD kit (Becton Dickinson Immunocytometry System, USA) and flow cytometry.
(§3) After hospitalization, patients received a continuous infusion of the assigned drug for 8 h per day for a total of 14 days. After the final administration of the investigational drug, patients were subjected to safety examinations and then discharged. But, if necessary due to disease activity, continuous hospitalization was allowed. Patients were requested to make an office visit at 4 and 8 weeks. Evaluations of their Mayo scores including endoscopic examinations were done at 2 and 8 weeks, whereas evaluation of the Lichtiger index was done at 2, 4, and 8 weeks. The dose of concomitant steroid was maintained for 2 weeks after drug administration, and then, a reduction in the steroid dose was allowed depending on the disease condition. Changes to the doses of other drugs, such as aminosalicylic acid, were prohibited throughout the trial.
(§4) All data were collected at each institute from March 2017 to April 2019. The primary endpoint was the change in the Mayo scores at 2 weeks. Secondary endpoints included the change in the Mayo scores at 8 weeks and the rate of clinical remission at 2 and 8 weeks, defined as a Mayo score 0; the response rate of the Mayo scores at 2 and 8 weeks, defined as an improvement of a 3-point or more decrease or at least a 30% decrease from baseline; the changes in MES at 2 and 8 weeks; the changes in the Lichtiger index at 2, 4, and 8 weeks; the changes in fecal calprotectin and FIT at 2 weeks; and finally, the changes in the given dose of steroid.
(§5) The significant level for each test was 5%. […] All data are shown as mean ± standard deviation (SD).

[2] = test system: patients with steroid-resistant UC; assay: Dose of concomitant steroid, phase-2a clinical trial; assay type: in vivo, Japanese patients; conditions: n = 3, mean ± SD, placebo 11.3 ± 6.4
Method: as §3, §4, §5

[3] = test system: patients with steroid-resistant UC; assay: Adverse events, safety assessment; conditions: for Decrease of blood pressure (cardiovascular disorders) / Flushing (cardiovascular disorders) / Gastrointestinal disorders / Head disconfort (nervous system disorders) / Palpitation (cardiovascular disorders) / Rash / Headache (nervous system disorders) / Increase of transaminase / Muscle pain, back pain / Any adverse events: patients with event (%); for Decrease of blood pressure (cardiovascular disorders) / Flushing (cardiovascular disorders) / Gastrointestinal disorders / Head disconfort (nervous system disorders) / Palpitation (cardiovascular disorders) / Rash / Severe adverse events: placebo 0; for Headache (nervous system disorders) / Serious adverse events: placebo 1 (14%); for Increase of transaminase / Muscle pain, back pain: placebo 2 (29%); for Any adverse events: placebo 4 (57%); for Severe adverse events / Serious adverse events: patients with event
Method: Safety evaluations including the evaluation of adverse events (AEs) and serious adverse events (SAEs) were conducted throughout the study. Vital signs, blood and urine tests, and a 12-lead ECG were performed at specified times after administration, with monitoring of ECG being assessed from the beginning of every test drug administration until 2 h after the administration.
All data, except for the PK parameters, were collected using an electronic data collection system (Viedoc) and analyzed by Intellim (Tokyo, Japan), an independent CRO. […] The population included in the safety analysis were all patients who received at least 1 day of administration of the test drug. […] The significant level for each test was 5%. All analyses were performed using SAS version 9.3 (SAS Institute, Cary, NC, USA). […] All data are shown as mean ± standard deviation (SD).

[4] = Plasma concentration of adrenomedullin (pharmacokinetics); conditions: human, intravenous
Method: Serum concentrations of AM were assessed at predose, 4 and 8 h, and 2 h after administration (10 h after the start of drug administration) on 1, 8, and 14 days of the administration. […] Measurements and data processing were carried by the Bozo Research Centre (Tsukuba, Japan). The evaluated pharmacokinetic (PK) parameters included the maximum measured plasma concentration (Cmax); the time to maximum measured plasma concentration (Tmax); and the cumulative area under the plasma concentration–time curve (AUC) from time 0 to time 10 h.
The Cmax and Tmax values were obtained directly from the data, while the AUC was calculated using the Phoenix WinNonlin software 6·1 (Pharsight, CA, USA). All data are shown as mean ± standard deviation (SD).

steroid-resistant UC = conditions: 9 ng/kg/min of AM; real dose might have been higher (1.4-fold dose of bulk powder used); cited from earlier work
Excerpt: A high rate of the placebo effect has been reported in a previous trial for UC [1–3]. High response rates in the placebo group have occasionally obstructed the successful accomplishment of clinical trials for active UC [19]. In this trial, we were concerned about the major impact from the placebo effect because attending patients received hospitalization and bed rest for 2 weeks. Figure 2 illustrates the changes in clinical indexes and fecal markers of each patient at 2 weeks.

[5] = test system: patients with steroid-resistant UC; assay: Lichtiger index, phase-2a clinical trial; assay type: in vivo, Japanese patients; conditions: mean ± SD
Excerpt: as §1, §2, §3, §4, §5

## CC[C@H](C)[C@H](NC(=O)[C@H](CCC(N)=O)NC(=O)[C@H](Cc1c[nH]cn1)NC(=O)[C@H](C)NC(=O)[C@H](CC(C)C)NC(=O)[C@H](CCCCN)NC(=O)[C@H](CCC(N)=O)NC(=O)[C@@H](NC(=O)[C@@H](NC(=O)[C@@H]1CSSC[C@H](NC(=O)CNC(=O)[C@H](Cc2ccccc2)NC(=O)[C@H](CO)NC(=O)[C@H](CCCNC(=N)N)NC(=O)[C@H](CC(C)C)NC(=O)CNC(=O)[C@H](CCC(N)=O)NC(=O)[C@H](Cc2ccccc2)NC(=O)[C@H](CC(N)=O)NC(=O)[C@H](CC(N)=O)NC(=O)[C@H](CCSC)NC(=O)[C@H](CO)NC(=O)[C@H](CCC(N)=O)NC(=O)[C@H](CCCNC(=N)N)NC(=O)[C@@H](N)Cc2ccc(O)cc2)C(=O)N[C@@H](CCCNC(=N)N)C(=O)N[C@@H](Cc2ccccc2)C(=O)NCC(=O)N[C@@H]([C@@H](C)O)C(=O)N1)[C@@H](C)O)C(C)C)C(=O)N[C@@H](Cc1ccc(O)cc1)C(=O)N[C@@H](CCC(N)=O)C(=O)N[C@@H](Cc1ccccc1)C(=O)N[C@H](C(=O)N[C@@H](CC(=O)O)C(=O)N[C@@H](CCCCN)C(=O)N[C@@H](CC(=O)O)C(=O)N[C@@H](CCCCN)C(=O)N[C@@H](CC(=O)O)C(=O)N[C@@H](CC(N)=O)C(=O)N[C@H](C(=O)N[C@@H](C)C(=O)N1CCC[C@H]1C(=O)N[C@@H](CCCNC(=N)N)C(=O)N[C@@H](CO)C(=O)N[C@@H](CCCCN)C(=O)N[C@H](C(=O)N[C@@H](CO)C(=O)N1CCC[C@H]1C(=O)N[C@@H](CCC(N)=O)C(=O)NCC(=O)N[C@@H](Cc1ccc(O)cc1)C(N)=O)[C@@H](C)CC)C(C)C)[C@@H](C)O [Adrenomedullin]
[1]; AM 5 ng/kg/min infusion 8 h/day x 14 days, 2 week, n = 4, baseline 2.3 ± 0.5, placebo 2.0 ± 0.6
  MES (Mayo endoscopic sub-score): 1.5 ± 0.6
[1]; AM 5 ng/kg/min infusion 8 h/day x 14 days, 2 week, n = 4, placebo -0.5 ± 0.8, P = 0.67 vs. placebo
  Change of MES: -0.8 ± 1.0
[1]; AM 5 ng/kg/min infusion 8 h/day x 14 days, 8 week, n = 3, placebo 2.0 ± 1.4 (n = 2)
  MES (Mayo endoscopic sub-score): 0.7 ± 0.6
[1]; AM 5 ng/kg/min infusion 8 h/day x 14 days, 8 week, n = 3, placebo -0.5 ± 2.1 (n = 2), P = 0.47 vs. placebo
  Change of MES: -1.7 ± 1.2
[1]; AM 10 ng/kg/min infusion 8 h/day x 14 days, 2 week, n = 5, baseline 2.2 ± 0.4, placebo 2.0 ± 0.6
  MES (Mayo endoscopic sub-score): 2.2 ± 0.8
[1]; AM 10 ng/kg/min infusion 8 h/day x 14 days, 2 week, n = 5, placebo -0.5 ± 0.8, P = 0.32 vs. placebo
  Change of MES: 0.0 ± 0.7
[1]; AM 10 ng/kg/min infusion 8 h/day x 14 days, 8 week, n = 3, placebo 2.0 ± 1.4 (n = 2)
  MES (Mayo endoscopic sub-score): 2.0 ± 0.0
[1]; AM 10 ng/kg/min infusion 8 h/day x 14 days, 8 week, n = 3, placebo -0.5 ± 2.1 (n = 2), P = 0.69 vs. placebo
  Change of MES: 0.0 ± 0.0
[1]; AM 15 ng/kg/min infusion 8 h/day x 14 days, 2 week, n = 6, baseline 2.5 ± 0.5, placebo 2.0 ± 0.6
  MES (Mayo endoscopic sub-score): 2.3 ± 1.0
[1]; AM 15 ng/kg/min infusion 8 h/day x 14 days, 2 week, n = 6, placebo -0.5 ± 0.8, P = 0.49 vs. placebo
  Change of MES: -0.2 ± 0.8
[1]; AM 15 ng/kg/min infusion 8 h/day x 14 days, 8 week, n = 3, placebo 2.0 ± 1.4 (n = 2)
  MES (Mayo endoscopic sub-score): 0.0 ± 0.0
[1]; AM 15 ng/kg/min infusion 8 h/day x 14 days, 8 week, n = 3, placebo -0.5 ± 2.1 (n = 2), P = 0.27 vs. placebo
  Change of MES: -2.0 ± 0.0
[2]; AM 5 ng/kg/min group
  dose of steroid at 8 weeks: 5.0 ± 8.7 mg
[2]; AM 10 ng/kg/min group
  dose of steroid at 8 weeks: 10.0 ± 10.0 mg
[2]; AM 15 ng/kg/min group
  dose of steroid at 8 weeks: 16.7 ± 12.6 mg
[3]; AM 5 ng/kg/min, n = 5
  Decrease of blood pressure (cardiovascular disorders): 0
  Flushing (cardiovascular disorders): 0
  Gastrointestinal disorders: 2 (40%)
  Head disconfort (nervous system disorders): 0
  Palpitation (cardiovascular disorders): 0
  Rash: 0
  Headache (nervous system disorders): 3 (60%)
  Increase of transaminase: 0
  Muscle pain, back pain: 0
  Severe adverse events: 0
  Serious adverse events: 0
[3]; AM 5 ng/kg/min, n = 5, n = 7
  Any adverse events: 4 (80%)
[3]; AM 10 ng/kg/min, n = 7
  Decrease of blood pressure (cardiovascular disorders): 1 (14%)
  Flushing (cardiovascular disorders): 0
  Gastrointestinal disorders: 0
  Head disconfort (nervous system disorders): 1 (14%)
  Palpitation (cardiovascular disorders): 0
  Rash: 0
  Headache (nervous system disorders): 4 (57%)
  Increase of transaminase: 0
  Muscle pain, back pain: 0
  Any adverse events: 6 (86%)
  Severe adverse events: 0
  Serious adverse events: 0
[3]; AM 15 ng/kg/min, n = 7
  Decrease of blood pressure (cardiovascular disorders): 1 (14%)
  Flushing (cardiovascular disorders): 2 (29%)
  Gastrointestinal disorders: 0
  Head disconfort (nervous system disorders): 2 (29%)
  Palpitation (cardiovascular disorders): 1 (14%)
  Rash: 1 (14%)
  Headache (nervous system disorders): 4 (57%)
  Increase of transaminase: 1 (14%)
  Muscle pain, back pain: 0
  Any adverse events: 6 (86%)
  Severe adverse events: 0
  Serious adverse events: 0
[4]; 5 ng/kg/min
  AUC(0-t): 0.152 ± 0.034 ng·h/mL
[4]; 10 ng/kg/min
  AUC(0-t): 0.281 ± 0.039 ng·h/mL
[4]; 15 ng/kg/min
  AUC(0-t): 0.44 ± 0.191 ng·h/mL
steroid-resistant UC
  improvement in steroid-resistant UC: significant improvement
[5]; AM 5 ng/kg/min infusion 8 h/day x 14 days, at 2 weeks, n = 4, baseline 10.8 ± 2.9, placebo 7.0 ± 5.8
  Lichitiger index: 5.5 ± 5.6
[5]; AM 5 ng/kg/min infusion 8 h/day x 14 days, at 4 weeks, n = 3, placebo 3.5 ± 3.7
  Lichitiger index: 2.0 ± 1.7
[5]; AM 5 ng/kg/min infusion 8 h/day x 14 days, at 8 weeks, n = 3, placebo 2.3 ± 4.0
  Lichitiger index: 1.3 ± 1.2
[5]; AM 10 ng/kg/min infusion 8 h/day x 14 days, at 2 weeks, n = 5, baseline 12.2 ± 0.4, placebo 7.0 ± 5.8
  Lichitiger index: 7.8 ± 3.8
[5]; AM 10 ng/kg/min infusion 8 h/day x 14 days, at 4 weeks, n = 3, placebo 3.5 ± 3.7
  Lichitiger index: 4.7 ± 4.7
[5]; AM 10 ng/kg/min infusion 8 h/day x 14 days, at 8 weeks, n = 3, placebo 2.3 ± 4.0
  Lichitiger index: 5.7 ± 4.5
[5]; AM 15 ng/kg/min infusion 8 h/day x 14 days, at 2 weeks, n = 6, baseline 12.0 ± 1.7, placebo 7.0 ± 5.8
  Lichitiger index: 6.5 ± 4.4
[5]; AM 15 ng/kg/min infusion 8 h/day x 14 days, at 4 weeks, n = 3, placebo 3.5 ± 3.7
  Lichitiger index: 1.3 ± 1.5
[5]; AM 15 ng/kg/min infusion 8 h/day x 14 days, at 8 weeks, n = 3, placebo 2.3 ± 4.0
  Lichitiger index: 0.3 ± 0.6
